Assay results published in ChEMBL document CHEMBL4219034, “Synthesis, antimicrobial activity, structure-activity relationship and cytotoxic studies of a new series of functionalized (Z)-3-(2-oxo-2-substituted ethylidene)-3,4-dihydro-2H-benzo[b][1,4]oxazin-2-ones” (Bioorg Med Chem Lett, 2017).
Values after ≈ are worked out from the molar mass of the structure shown. Active and inactive are the calls of the source. No cut-off for these calls is given here.

How the values were obtained:
Escherichia coli [1] = assay: Antibacterial activity against Escherichia coli MTCC 443 at 100 ug/ml incubated for 12 hrs by agar disc diffusion assay; format: functional; details: MTCC 443, 12 h, read-out: IZ
Fusarium oxysporum [2] = assay: Antifungal activity against Fusarium oxysporum ATCC 62506 incubated for 24 hrs by serial dilution method; format: functional
Fusarium oxysporum [3] = assay: Antifungal activity against Fusarium oxysporum ATCC 62506 at 100 ug/ml incubated for 72 hrs by agar disc diffusion assay; format: functional; details: for zone of inhibition at 100 µg/mL: ATCC 62506, 72 h, read-out: IZ
Trichoderma reesei [4] = assay: Antifungal activity against Trichoderma reesei ATCC 13631 incubated for 24 hrs by serial dilution method; format: functional
Staphylococcus aureus [5] = assay: Antibacterial activity against Staphylococcus aureus MTCC 3381 incubated for 24 hrs by serial dilution method; format: functional
Staphylococcus aureus [6] = assay: Antibacterial activity against Staphylococcus aureus MTCC 3381 at 100 ug/ml incubated for 12 hrs by agar disc diffusion assay; format: functional; details: for zone of inhibition at 100 µg/mL: MTCC 3381, 12 h, read-out: IZ
[7] = Cytotoxicity against mouse NIH/3T3 cells assessed as cell viability at 25 ug/ml after 72 hrs by MTT assay relative to control; format: cell-based, NIH3T3; details: read-out: Activity
Aspergillus niger [8] = assay: Antifungal activity against Aspergillus niger ATCC 9029 incubated for 24 hrs by serial dilution method; format: functional
[9] = Cytotoxicity against mouse NIH/3T3 cells assessed as cell viability at 50 ug/ml after 72 hrs by MTT assay relative to control; format: cell-based, NIH3T3; details: read-out: Activity
[10] = Cytotoxicity against mouse NIH/3T3 cells assessed as cell viability at 100 ug/ml after 72 hrs by MTT assay relative to control; format: cell-based, NIH3T3; details: read-out: Activity
Trichoderma reesei [11] = assay: Antifungal activity against Trichoderma reesei ATCC 13631 at 100 ug/ml incubated for 72 hrs by agar disc diffusion assay; format: functional; details: for zone of inhibition at 100 µg/mL: ATCC 13631, 72 h, read-out: IZ
Bacillus subtilis [12] = assay: Antibacterial activity against Bacillus subtilis MTCC 10619 incubated for 24 hrs by serial dilution method; format: functional
Aspergillus niger [13] = assay: Antifungal activity against Aspergillus niger ATCC 9029 at 100 ug/ml incubated for 72 hrs by agar disc diffusion assay; format: functional; details: for zone of inhibition at 100 µg/mL: ATCC 9029, 72 h, read-out: IZ
Streptomyces griseus [14] = assay: Antibacterial activity against Streptomyces griseus MTCC 4734 at 100 ug/ml incubated for 12 hrs by agar disc diffusion assay; format: functional; details: for zone of inhibition at 100 µg/mL: MTCC 4734, 12 h, read-out: IZ
Bacillus subtilis [15] = assay: Antibacterial activity against Bacillus subtilis MTCC 10619 at 100 ug/ml incubated for 12 hrs by agar disc diffusion assay; format: functional; details: for zone of inhibition at 100 µg/mL: MTCC 10619, 12 h, read-out: IZ
Talaromyces funiculosus [16] = assay: Antifungal activity against Penicillium funiculosum ATCC 11797 at 100 ug/ml incubated for 72 hrs by agar disc diffusion assay; format: functional; details: for zone of inhibition at 100 µg/mL: ATCC 11797, 72 h, read-out: IZ
[17] = Cytotoxicity against mouse NIH/3T3 cells assessed as cell viability at 250 ug/ml after 72 hrs by MTT assay relative to control; format: cell-based, NIH3T3; details: read-out: Activity
Talaromyces funiculosus [18] = assay: Antifungal activity against Penicillium funiculosum ATCC 11797 incubated for 24 hrs by serial dilution method; format: functional
Streptomyces griseus [19] = assay: Antibacterial activity against Streptomyces griseus MTCC 4734 incubated for 24 hrs by serial dilution method; format: functional
Escherichia coli [20] = assay: Antibacterial activity against Escherichia coli MTCC 443 incubated for 24 hrs by serial dilution method; format: functional; details: MTCC 443, 24 h
Staphylococcus aureus [21] = assay: Potency index, ratio of ampicillin MIC to compound MIC for Staphylococcus aureus MTCC 3381 by serial dilution method; format: functional
Bacillus subtilis [22] = assay: Potency index, ratio of chloramphenicol MIC to compound MIC for Bacillus subtilis MTCC 10619 by serial dilution method; format: functional
Bacillus subtilis [23] = assay: Potency index, ratio of ampicillin MIC to compound MIC for Bacillus subtilis MTCC 10619 by serial dilution method; format: functional
Streptomyces griseus [24] = assay: Potency index, ratio of ampicillin MIC to compound MIC for Streptomyces griseus MTCC 4734 by serial dilution method; format: functional

Compound	MIC (Fusarium oxysporum [2]; ATCC 62506, 24 h)	MIC (Trichoderma reesei [4])	MIC (Staphylococcus aureus [5]; MTCC 3381, 24 h)	MIC (Aspergillus niger [8]; ATCC 9029, 24 h)	MIC (Streptomyces griseus [19]; MTCC 4734, 24 h)	MIC (Escherichia coli [20])	MIC (Bacillus subtilis [12]; MTCC 10619, 24 h)	MIC (Talaromyces funiculosus [18]; ATCC 11797, 24 h)	zone of inhibition at 100 µg/mL (Escherichia coli [1])	zone of inhibition at 100 µg/mL (Fusarium oxysporum [3])	zone of inhibition at 100 µg/mL (Staphylococcus aureus [6])	viability at 72 h, 25 ug/ml [7]	viability at 72 h, 50 ug/ml [9]	viability at 72 h, 100 ug/ml [10]	inhibition zone (IZ) (Trichoderma reesei [11])	zone of inhibition at 100 µg/mL (Aspergillus niger [13])	zone of inhibition at 100 µg/mL (Streptomyces griseus [14])	viability at 72 h, 250 ug/ml [17]	zone of inhibition at 100 µg/mL (Bacillus subtilis [15])	zone of inhibition at 100 µg/mL (Talaromyces funiculosus [16])	other results
O=C1Oc2ccc([N+](=O)[O-])cc2N/C1=C\C(=O)C1CC1	12.5 µg/mL (≈ 45.6 µM)	inactive	100 µg/mL (≈ 365 µM)	100 µg/mL (≈ 365 µM)	6.25 µg/mL (≈ 22.8 µM)	50 µg/mL (≈ 182 µM)	–	–	14 mm	22 mm	6 mm	93.2%	86%	79.5%	inactive	6 mm	22 mm	73.7%	–	–	MIC (Bacillus subtilis [12]): inactive; inhibition zone (IZ) (Bacillus subtilis [15]): inactive; inhibition zone (IZ) (Talaromyces funiculosus [16]): inactive; MIC (Talaromyces funiculosus [18]): inactive
O=C1Oc2ccc(Cl)cc2N/C1=C\C(=O)C1CC1	12.5 µg/mL (≈ 47.4 µM)	inactive	12.5 µg/mL (≈ 47.4 µM)	–	–	50 µg/mL (≈ 190 µM)	100 µg/mL (≈ 379 µM)	–	10 mm	22 mm	12 mm	99%	90.3%	86.6%	inactive	–	–	79.1%	8 mm	–	MIC (Aspergillus niger [8]): inactive; inhibition zone (IZ) (Aspergillus niger [13]): inactive; inhibition zone (IZ) (Streptomyces griseus [14]): inactive; inhibition zone (IZ) (Talaromyces funiculosus [16]): inactive; MIC (Talaromyces funiculosus [18]): inactive; MIC (Streptomyces griseus [19]): inactive
O=C1Oc2cc([N+](=O)[O-])ccc2N/C1=C\C(=O)C1CC1	50 µg/mL (≈ 182 µM)	inactive	12.5 µg/mL (≈ 45.6 µM)	100 µg/mL (≈ 365 µM)	3.12 µg/mL (≈ 11.4 µM)	25 µg/mL (≈ 91.2 µM)	3.12 µg/mL (≈ 11.4 µM)	100 µg/mL (≈ 365 µM)	18 mm	10 mm	10 mm	94.3%	90.9%	83.3%	inactive	8 mm	28 mm	76.3%	24 mm	6 mm	Ratio (Bacillus subtilis [22]): 2; Ratio (Streptomyces griseus [24]): 4; Ratio (Bacillus subtilis [23]): 8
O=C1Oc2ccccc2N/C1=C\C(=O)c1ccc(C2CCCCC2)cc1	–	inactive	–	50 µg/mL (≈ 144 µM)	50 µg/mL (≈ 144 µM)	100 µg/mL (≈ 288 µM)	6.25 µg/mL (≈ 18 µM)	50 µg/mL (≈ 144 µM)	8 mm	–	–	–	–	–	inactive	6 mm	10 mm	–	22 mm	6 mm	MIC (Fusarium oxysporum [2]): inactive; inhibition zone (IZ) (Fusarium oxysporum [3]): inactive; MIC (Staphylococcus aureus [5]): inactive; inhibition zone (IZ) (Staphylococcus aureus [6]): inactive; Ratio (Bacillus subtilis [23]): 4

Now from value to compound, other results behind:

MIC (Fusarium oxysporum [2]; ATCC 62506, 24 h)	MIC (Trichoderma reesei [4])	MIC (Staphylococcus aureus [5]; MTCC 3381, 24 h)	MIC (Aspergillus niger [8]; ATCC 9029, 24 h)	MIC (Streptomyces griseus [19]; MTCC 4734, 24 h)	MIC (Escherichia coli [20])	MIC (Bacillus subtilis [12]; MTCC 10619, 24 h)	MIC (Talaromyces funiculosus [18]; ATCC 11797, 24 h)	Compound	zone of inhibition at 100 µg/mL (Escherichia coli [1])	zone of inhibition at 100 µg/mL (Fusarium oxysporum [3])	zone of inhibition at 100 µg/mL (Staphylococcus aureus [6])	viability at 72 h, 25 ug/ml [7]	viability at 72 h, 50 ug/ml [9]	viability at 72 h, 100 ug/ml [10]	inhibition zone (IZ) (Trichoderma reesei [11])	zone of inhibition at 100 µg/mL (Aspergillus niger [13])	zone of inhibition at 100 µg/mL (Streptomyces griseus [14])	viability at 72 h, 250 ug/ml [17]	zone of inhibition at 100 µg/mL (Bacillus subtilis [15])	zone of inhibition at 100 µg/mL (Talaromyces funiculosus [16])	other results
50 µg/mL (≈ 127 µM)	–	6.25 µg/mL (≈ 15.9 µM)	25 µg/mL (≈ 63.7 µM)	12.5 µg/mL (≈ 31.9 µM)	25 µg/mL (≈ 63.7 µM)	12.5 µg/mL (≈ 31.9 µM)	25 µg/mL (≈ 63.7 µM)	O=C1Oc2ccc([N+](=O)[O-])cc2N/C1=C\C(=O)c1ccc(C2CCCCC2)cc1	18 mm	10 mm	20 mm	98.2%	89.1%	82.5%	–	18 mm	22 mm	79.2%	16 mm	16 mm	MIC (Trichoderma reesei [4]; ATCC 13631, 24 h): 25 µg/mL (≈ 63.7 µM); zone of inhibition at 100 µg/mL (Trichoderma reesei [11]): 20 mm; Ratio (Staphylococcus aureus [21]): 2
25 µg/mL (≈ 63.7 µM)	–	12.5 µg/mL (≈ 31.9 µM)	100 µg/mL (≈ 255 µM)	50 µg/mL (≈ 127 µM)	25 µg/mL (≈ 63.7 µM)	3.12 µg/mL (≈ 7.95 µM)	100 µg/mL (≈ 255 µM)	O=C1Oc2cc([N+](=O)[O-])ccc2N/C1=C\C(=O)c1ccc(C2CCCCC2)cc1	18 mm	20 mm	14 mm	97.8%	89%	84.6%	–	8 mm	10 mm	78.3%	24 mm	14 mm	MIC (Trichoderma reesei [4]; ATCC 13631, 24 h): 25 µg/mL (≈ 63.7 µM); Ratio (Bacillus subtilis [22]): 2; zone of inhibition at 100 µg/mL (Trichoderma reesei [11]): 12 mm; Ratio (Bacillus subtilis [23]): 8
50 µg/mL (≈ 129 µM)	–	6.25 µg/mL (≈ 16.2 µM)	–	12.5 µg/mL (≈ 32.4 µM)	25 µg/mL (≈ 64.7 µM)	25 µg/mL (≈ 64.7 µM)	25 µg/mL (≈ 64.7 µM)	O=C1Oc2ccc([N+](=O)[O-])cc2N/C1=C\C(=O)c1ccc(-c2ccccc2)cc1	16 mm	14 mm	20 mm	91%	83.5%	77.6%	–	–	20 mm	77.1%	18 mm	16 mm	MIC (Trichoderma reesei [4]; ATCC 13631, 24 h): 100 µg/mL (≈ 259 µM); MIC (Aspergillus niger [8]): inactive; zone of inhibition at 100 µg/mL (Trichoderma reesei [11]): 10 mm; Ratio (Staphylococcus aureus [21]): 2; inhibition zone (IZ) (Aspergillus niger [13]): inactive
25 µg/mL (≈ 69.4 µM)	–	100 µg/mL (≈ 278 µM)	–	–	12.5 µg/mL (≈ 34.7 µM)	–	25 µg/mL (≈ 69.4 µM)	O=C1Oc2cc([N+](=O)[O-])ccc2N/C1=C\C(=O)c1cccc2ccccc12	26 mm	18 mm	8 mm	93.5%	88.9%	83%	–	–	–	76.3%	–	20 mm	MIC (Trichoderma reesei [4]; ATCC 13631, 24 h): 25 µg/mL (≈ 69.4 µM); MIC (Aspergillus niger [8]): inactive; zone of inhibition at 100 µg/mL (Trichoderma reesei [11]): 18 mm; MIC (Bacillus subtilis [12]): inactive; inhibition zone (IZ) (Aspergillus niger [13]): inactive; inhibition zone (IZ) (Streptomyces griseus [14]): inactive; inhibition zone (IZ) (Bacillus subtilis [15]): inactive; MIC (Streptomyces griseus [19]): inactive
